Measured values: ChEMBL document CHEMBL1914343, “Recent progress in synthesis and bioactivity studies of indolizines” (Eur J Med Chem, 2011)
≈ marks a conversion by molar mass, not a printed value. Calls of active or inactive are those of the source. The calls are words filed in the database; no cut-off is given here.

Columns and labels:
Mus musculus [1] = test: Antiinflammatory activity in […] mouse assessed as inhibition of carrageenan-induced edema after 2 hrs relative to control; format: functional
[2] = target: T1, Polyunsaturated fatty acid lipoxygenase ALOX15 (Oryctolagus cuniculus, UniProt P12530); test: Inhibition of rabbit reticulocytes arachidonate 15-lipoxygenase
T1 sequence (P12530 whole entry): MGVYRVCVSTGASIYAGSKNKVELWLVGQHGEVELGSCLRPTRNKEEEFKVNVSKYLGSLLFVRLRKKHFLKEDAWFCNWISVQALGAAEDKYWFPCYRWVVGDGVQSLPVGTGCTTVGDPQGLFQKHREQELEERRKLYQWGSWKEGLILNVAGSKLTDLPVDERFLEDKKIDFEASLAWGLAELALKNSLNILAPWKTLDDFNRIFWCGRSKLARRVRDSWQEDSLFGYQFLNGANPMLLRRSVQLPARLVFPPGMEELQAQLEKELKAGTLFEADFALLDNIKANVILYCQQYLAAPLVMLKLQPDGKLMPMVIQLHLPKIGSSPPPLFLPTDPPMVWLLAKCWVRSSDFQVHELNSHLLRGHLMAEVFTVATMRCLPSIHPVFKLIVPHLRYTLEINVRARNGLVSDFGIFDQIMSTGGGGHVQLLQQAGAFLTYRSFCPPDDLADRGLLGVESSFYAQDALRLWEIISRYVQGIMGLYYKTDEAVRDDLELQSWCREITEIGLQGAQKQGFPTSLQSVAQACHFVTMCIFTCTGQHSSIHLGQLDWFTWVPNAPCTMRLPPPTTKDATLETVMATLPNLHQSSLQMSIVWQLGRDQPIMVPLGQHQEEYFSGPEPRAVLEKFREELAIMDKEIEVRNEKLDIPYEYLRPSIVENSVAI

[3] = test system: Radical scavenging activity; test: Antioxidant activity assessed as DPPH radical scavenging activity at 667 uM after 15 mins; format: functional
[4] = Inhibition of soybean arachidonate 15-lipoxygenase; set-up: species or system Glycine max
[5] = Antioxidant activity assessed as inhibition of lipid peroxidation after 30 mins; format: functional
Escherichia coli = test: Antibacterial activity against Escherichia coli at 100 ug/mL; format: functional, organism-based
Candida albicans = test: Antifungal activity against Candida albicans at 100 ug/mL; format: functional, organism-based
Aspergillus flavus = test: Antifungal activity against Aspergillus flavus at 100 ug/mL; format: functional, organism-based
Streptomyces albus = test: Antibacterial activity against Streptomyces albus at 100 ug/mL; format: functional, organism-based
Histamine H3 receptor [6] = target: Histamine H3 receptor (Rattus norvegicus, UniProt Q9QYN8); test: Antagonist activity at rat histamine H3 receptor expressed in […] cells; format: functional, cell-based, SK-N-MC; settings: read-out: pA2 (converted)
[7] = Half life in human liver microsomes; format: ADME, Microsome
[8] = Apparent permeability across human Caco2 cells; format: ADME, cell-based; settings: Caco-2
Albumin = Albumin (Homo sapiens, UniProt P02768); test: Binding affinity to human serum albumin; format: ADME; settings: isolated protein
Histamine H3 receptor [9] = target: Histamine H3 receptor (Homo sapiens, UniProt Q9Y5N1); test: Antagonist activity at human histamine H3 receptor expressed in […] cells; format: functional, cell-based, SK-N-MC; settings: read-out: pA2 (converted)
[10] = test system: Mycobacterium tuberculosis; test: Antimycobacterial activity against Mycobacterium tuberculosis H37Rv ATCC 27294 by microplate alamar blue assay; format: functional
Substance-P receptor = Substance-P receptor (Homo sapiens, UniProt P25103); test: Antagonist activity at human NK1 receptor expressed in CHO cells assessed as inhibition of SP-induced intracellular Ca2+ increase by Fura-2 assay; format: functional, cell-based; settings: read-out: pA2 (converted)
Substance-K receptor = target: T2, Substance-K receptor (Homo sapiens, UniProt P21452); test: Antagonist activity at human NK2 receptor expressed in CHO cells assessed as inhibition of Neurokinin A-induced increase in intracellular Ca2+ increase by Fura-2 assay; format: functional, cell-based; settings: read-out: pA2 (converted)
T2 sequence (P21452 whole entry): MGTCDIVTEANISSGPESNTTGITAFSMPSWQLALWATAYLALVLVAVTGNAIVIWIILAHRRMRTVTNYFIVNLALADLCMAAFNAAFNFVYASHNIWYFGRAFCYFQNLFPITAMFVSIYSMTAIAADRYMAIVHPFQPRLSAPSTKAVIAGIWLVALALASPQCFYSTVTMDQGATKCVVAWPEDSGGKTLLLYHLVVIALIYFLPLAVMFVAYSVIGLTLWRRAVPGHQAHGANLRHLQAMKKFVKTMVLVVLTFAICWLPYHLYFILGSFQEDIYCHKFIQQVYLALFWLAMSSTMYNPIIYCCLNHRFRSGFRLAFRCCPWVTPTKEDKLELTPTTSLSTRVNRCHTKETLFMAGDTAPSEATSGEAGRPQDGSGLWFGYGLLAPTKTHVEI

Mus musculus [11] = test: Antiinflammatory activity in […] mouse assessed as inhibition of carrageenan-induced edema after 3 hrs relative to control; format: functional
[12] = test system: Trypanosoma brucei rhodesiense; test: Antitrypanosomal activity against Trypanosoma brucei rhodesiense; format: functional
Pichia kudriavzevii = test: Antifungal activity against Candida krusei at 32 ug/mL; format: functional, organism-based
Plasmodium falciparum = test: Antiplasmodial activity against Plasmodium falciparum; format: functional
[13] = test system: Mycobacterium tuberculosis; test: Antimycobacterial activity against Mycobacterium tuberculosis H37Rv ATCC 27294 at 6.25 ug/mL by microplate alamar blue assay; format: functional
Trypanosoma cruzi = test: Antitrypanosomal activity against Trypanosoma cruzi; format: functional
Leishmania donovani = test: Antileishmanial activity against Leishmania donovani; format: functional
[14] = test system: Mycobacterium tuberculosis; test: Antimycobacterial activity against Mycobacterium tuberculosis H37Rv by agar diffusion method; format: functional
Estrogen receptor = target: T3, Estrogen receptor (Homo sapiens, UniProt P03372)
T3 sequence (P03372 whole entry): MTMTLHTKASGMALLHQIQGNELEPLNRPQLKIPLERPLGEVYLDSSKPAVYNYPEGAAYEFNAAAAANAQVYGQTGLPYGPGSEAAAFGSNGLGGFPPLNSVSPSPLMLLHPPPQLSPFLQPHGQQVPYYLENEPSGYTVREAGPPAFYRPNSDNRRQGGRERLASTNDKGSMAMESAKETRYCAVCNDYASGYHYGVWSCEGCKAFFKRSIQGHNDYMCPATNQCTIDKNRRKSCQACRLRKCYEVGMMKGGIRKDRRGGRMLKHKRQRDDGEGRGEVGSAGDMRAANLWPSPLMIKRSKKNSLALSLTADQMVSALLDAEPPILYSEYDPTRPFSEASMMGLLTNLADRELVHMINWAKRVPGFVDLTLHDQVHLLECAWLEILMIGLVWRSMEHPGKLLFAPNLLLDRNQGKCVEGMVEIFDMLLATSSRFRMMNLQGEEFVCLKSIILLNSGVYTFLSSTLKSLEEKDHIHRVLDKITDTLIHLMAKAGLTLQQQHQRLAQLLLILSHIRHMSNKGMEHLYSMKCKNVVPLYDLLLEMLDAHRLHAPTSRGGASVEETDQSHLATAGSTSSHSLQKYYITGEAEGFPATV
Description: Agonist activity at estrogen receptor

[15] = test system: Mycobacterium tuberculosis; test: Ratio MIC for ciprofloxacin to compound for Mycobacterium tuberculosis H37Rv by agar diffusion method; format: functional
[16] = test system: Mycobacterium tuberculosis; test: Ratio MIC for ethambutol to compound for Mycobacterium tuberculosis H37Rv by agar diffusion method; format: functional

Substance-P receptor, sequence (P25103 whole entry): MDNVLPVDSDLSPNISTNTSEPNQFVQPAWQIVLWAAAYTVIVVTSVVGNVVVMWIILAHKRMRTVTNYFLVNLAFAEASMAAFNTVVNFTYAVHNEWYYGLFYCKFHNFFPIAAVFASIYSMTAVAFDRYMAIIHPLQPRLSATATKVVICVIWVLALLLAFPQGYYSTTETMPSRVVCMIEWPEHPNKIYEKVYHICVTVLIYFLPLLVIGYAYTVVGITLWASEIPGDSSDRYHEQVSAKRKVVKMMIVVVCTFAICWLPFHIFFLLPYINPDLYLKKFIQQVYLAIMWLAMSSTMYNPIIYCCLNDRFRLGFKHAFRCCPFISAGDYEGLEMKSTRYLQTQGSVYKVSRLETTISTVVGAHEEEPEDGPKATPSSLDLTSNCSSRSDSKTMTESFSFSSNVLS
Histamine H3 receptor (Homo sapiens, UniProt Q9Y5N1), sequence (Q9Y5N1 whole entry): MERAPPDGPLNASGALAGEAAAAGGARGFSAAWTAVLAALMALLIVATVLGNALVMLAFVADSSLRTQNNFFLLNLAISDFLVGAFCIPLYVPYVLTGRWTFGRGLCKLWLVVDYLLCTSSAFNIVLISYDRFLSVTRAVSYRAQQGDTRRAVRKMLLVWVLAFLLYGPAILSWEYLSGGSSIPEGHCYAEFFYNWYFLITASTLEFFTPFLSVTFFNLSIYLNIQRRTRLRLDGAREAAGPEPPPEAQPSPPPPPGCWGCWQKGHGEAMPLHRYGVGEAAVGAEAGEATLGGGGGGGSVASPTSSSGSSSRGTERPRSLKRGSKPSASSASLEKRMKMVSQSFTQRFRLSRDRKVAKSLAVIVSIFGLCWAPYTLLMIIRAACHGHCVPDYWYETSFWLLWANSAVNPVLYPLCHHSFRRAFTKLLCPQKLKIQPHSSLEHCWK
Albumin, sequence (P02768 whole entry): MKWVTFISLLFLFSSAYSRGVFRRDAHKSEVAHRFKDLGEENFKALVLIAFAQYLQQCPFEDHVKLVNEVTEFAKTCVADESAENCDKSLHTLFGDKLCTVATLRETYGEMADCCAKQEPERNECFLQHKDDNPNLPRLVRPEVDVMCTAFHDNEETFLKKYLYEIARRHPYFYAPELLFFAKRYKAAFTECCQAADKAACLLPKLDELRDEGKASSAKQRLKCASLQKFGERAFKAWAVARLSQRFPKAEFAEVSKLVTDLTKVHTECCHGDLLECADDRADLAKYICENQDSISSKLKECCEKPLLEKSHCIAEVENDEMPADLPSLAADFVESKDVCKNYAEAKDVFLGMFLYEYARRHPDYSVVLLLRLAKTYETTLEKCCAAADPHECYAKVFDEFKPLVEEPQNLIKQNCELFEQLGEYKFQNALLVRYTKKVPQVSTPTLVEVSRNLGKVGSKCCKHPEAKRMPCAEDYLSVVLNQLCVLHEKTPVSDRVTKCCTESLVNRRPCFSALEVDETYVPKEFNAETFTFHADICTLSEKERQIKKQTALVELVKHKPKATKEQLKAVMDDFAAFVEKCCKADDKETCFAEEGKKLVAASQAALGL
Histamine H3 receptor (Rattus norvegicus, UniProt Q9QYN8), sequence (Q9QYN8 whole entry): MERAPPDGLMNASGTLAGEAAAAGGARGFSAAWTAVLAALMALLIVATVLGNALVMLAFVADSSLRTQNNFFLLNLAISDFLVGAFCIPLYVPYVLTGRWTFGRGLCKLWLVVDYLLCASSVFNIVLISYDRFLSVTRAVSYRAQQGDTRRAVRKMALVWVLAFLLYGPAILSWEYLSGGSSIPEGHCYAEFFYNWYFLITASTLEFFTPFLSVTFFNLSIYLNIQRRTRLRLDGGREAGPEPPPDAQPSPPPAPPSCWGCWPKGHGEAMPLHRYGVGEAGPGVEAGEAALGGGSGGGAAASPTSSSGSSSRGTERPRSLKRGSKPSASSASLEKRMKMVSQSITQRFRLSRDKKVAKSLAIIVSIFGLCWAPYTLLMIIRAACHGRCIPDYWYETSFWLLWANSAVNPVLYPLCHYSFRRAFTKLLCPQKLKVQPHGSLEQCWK

Compound: COC(=O)c1cc(C(=O)c2cc3ccccc3o2)n2ccccc12
- inhibition (INH) (Mus musculus [1]): 36%

Compound: COc1c(-c2ccccc2)c(-c2ccccc2)n2ccc(C#N)cc12
- IC50 [2]: 77 µM
- Activity [3]: -0.6%
- IC50 [4]: 33 µM
- IC50 [5]: 22 µM

Compound: CC1=CC=CC2[C@@H]3C(=O)N(c4ccccc4)C(=O)[C@@H]3C(C(=O)c3cccs3)N12 (some centres undefined)
- Activity (Escherichia coli): Active
- Activity (Candida albicans): Active
- Activity (Aspergillus flavus): Active
- Activity (Streptomyces albus): Active

Compound: c1ccn2cc(-c3ccc(OCCCN4CCCCC4)cc3)cc2c1
- Kb (Histamine H3 receptor [6]): 0.0195 µM
- half-life [7]: 10 min
- Papp [8]: 14.1 ×10⁻⁶ cm/s
- Activity (Albumin): 50%
- Kb (Histamine H3 receptor [9]): 0.00316 µM

Compound: N#Cc1ccn2c(-c3ccccc3)c(-c3ccccc3)c(C(O)C3CCCCC3)c2c1 (centres undefined)
- MIC [10]: > 6.25 µg/mL
- IC50 [4]: 23 µM

Compound: COC(=O)C1=C2CCC(C(=O)N[C@@H](CCc3c[nH]c4ccccc34)C(=O)N(C)Cc3ccccc3)N2C(=O)C(NC(C)=O)C1 (some centres undefined)
- Kb (Substance-P receptor): 0.126 µM
- Kb (Substance-K receptor): 0.631 µM

Compound: CC(=O)Oc1c(-c2ccccc2)c(-c2ccccc2)n2ccc(C#N)cc12
- IC50 [2]: 75 µM
- Activity [3]: -0.5%
- IC50 [4]: 31 µM
- IC50 [5]: 0.15 µM

Compound: CC(C)Cc1ccc(C(C)C(=O)O)cc1 (centres undefined) [IBUPROFEN]
- inhibition (INH) (Mus musculus [1]): 59%
- inhibition (INH) (Mus musculus [11]): 62%

Compound: N#Cc1ccn2c(-c3ccccc3)c(-c3ccccc3)c(C(O)c3ccccc3)c2c1 (centres undefined)
- MIC [10]: 6.25 µg/mL (≈ 15.6 µM)
- IC50 [2]: 48 µM
- IC50 [4]: 35 µM
- MIC [12]: 12 µg/mL (≈ 30 µM)
- Activity (Pichia kudriavzevii): inactive
- MIC (Plasmodium falciparum): 2.3 µg/mL (≈ 5.74 µM)
- inhibition at 6.25 µg/mL [13]: 100%
- MIC (Trypanosoma cruzi): 3.2 µg/mL (≈ 7.99 µM)
- IC50 [5]: 35.8 µM
- MIC (Leishmania donovani): 2.3 µg/mL (≈ 5.74 µM)

Compound: CCOC(=O)C1(C#N)C(c2ccc(Cl)cc2)=C(C(=O)c2cccs2)N2C(C)=CC=CC21 (centres undefined)
- Activity (Escherichia coli): Active
- Activity (Candida albicans): Active
- Activity (Aspergillus flavus): inactive
- Activity (Streptomyces albus): Active

Compound: COC(=O)C1=C2CCC(C(=O)N[C@@H](CCc3c[nH]c4ccccc34)C(=O)NCc3cc(C(F)(F)F)cc(C(F)(F)F)c3)N2C(=O)C(NC(C)=O)C1 (some centres undefined)
- Kb (Substance-P receptor): 0.1 µM

Compound: CC(=O)c1c(-c2ccccc2)c(-c2ccccc2)n2ccc(C#N)cc12
- IC50 [2]: 44 µM
- IC50 [4]: 23 µM
- inhibition at 6.25 µg/mL [13]: 21%
- IC50 [5]: > 100 µM

Compound: N#Cc1ccn2c(-c3ccccc3)c(-c3ccccc3)c(C(O)c3ccc(Cl)cc3)c2c1 (centres undefined)
- MIC [10]: 6.25 µg/mL (≈ 14.4 µM)
- IC50 [4]: 23 µM
- inhibition at 6.25 µg/mL [13]: 95%

Compound: c1csc(-c2cc3ccccn3c2)c1
- Activity (Escherichia coli): Active
- Activity (Candida albicans): Active
- Activity (Aspergillus flavus): inactive
- Activity (Streptomyces albus): Active

Compound: N#Cc1ccn2c(-c3ccccc3)c(-c3ccccc3)c(OS(=O)(=O)C(F)(F)F)c2c1
- IC50 [2]: 59 µM
- Activity [3]: 79.5%
- IC50 [4]: 46 µM
- IC50 [5]: 0.6 µM

Compound: Cc1ccc(C(O)c2c(-c3ccccc3)c(-c3ccccc3)n3ccc(C#N)cc23)cc1 (centres undefined)
- MIC [10]: 6.25 µg/mL (≈ 15.1 µM)
- IC50 [4]: 22 µM
- inhibition at 6.25 µg/mL [13]: 90%

Compound: N#Cc1ccn2c(-c3ccccc3)c(-c3ccccc3)cc2c1
- IC50 [2]: 51 µM
- Activity [3]: -0.2%
- IC50 [4]: 30 µM
- inhibition at 6.25 µg/mL [13]: 9%
- IC50 [5]: > 100 µM

Compound: CCOC(=O)c1c(-c2ccc(Cl)cc2)cc2c3ccccc3ccn12
- MIC [14]: 2.3 µM (≈ 0.805 µg/mL)

Compound: COC(=O)C1=C2CCC(C(=O)N[C@@H](CCc3c[nH]c4ccccc34)C(=O)N(C)Cc3ccccc3)N2C(=O)C(NC(=O)OCc2ccccc2)C1 (some centres undefined)
- Kb (Substance-P receptor): 0.2 µM
- Kb (Substance-K receptor): 0.2 µM

Compound: CCc1c(-c2ccc(O)cc2)c2ccc3cccc1n32
- IC50 (Estrogen receptor): 0.0095 µM

Compound: Cc1ccc(S(=O)(=O)Oc2c(-c3ccccc3)c(-c3ccccc3)n3ccc(C#N)cc23)cc1
- IC50 [2]: 25 µM
- IC50 [4]: 17 µM
- IC50 [5]: 3.64 µM

Compound: Cc1c(-c2ccc(OCCCN3CCCCC3)cc2)cc2ccccn12
- half-life [7]: 54 min

Compound: N#Cc1cc(C(=O)c2cc3ccccc3o2)n2ccccc12
- inhibition (INH) (Mus musculus [11]): 24%

Compound: N#Cc1c(-c2ccc(F)cc2)c([N+](=O)[O-])c2c3ccccc3ccn12
- MIC [14]: 3.9 µM (≈ 1.29 µg/mL)

Compound: COc1ccc(-c2c(-c3ccccc3)c(-c3ccccc3)n3ccc(C#N)cc23)cc1
- IC50 [2]: 37 µM
- Activity [3]: -0.9%
- IC50 [4]: 20 µM
- IC50 [5]: > 100 µM

Compound: CCOC(=O)c1c(-c2ccc(F)cc2)cc2c3ccccc3ccn12
- Ratio [15]: 4.7
- MIC [14]: 1 µM (≈ 0.333 µg/mL)
- Ratio [16]: 7.6
